Structures can show the parent of a compound that is named as a salt.
tested on: Acinetobacter baumannii ATCC 17961; test: Antimicrobial susceptibility testing: 90% growth inhibitory concentration (IC90) determination; type: cell-based; conditions: ATCC17961, Acinetobacter baumannii ATCC 17961, Iso-Sensitest broth, read-out: ATCC 17961 IC90
How it was run: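 Growth was followed kinetically by OD600 at 20-min intervals for 16 h at 35±2 °C, with ~5×10^5 CFU/ml in Iso-Sensitest broth. Compounds were tested as twofold dilutions (e.g. 50–0.097 μM final). The concentration giving 90% inhibition of log-phase growth was reported.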

Row | SMILES | IC90 [µM]
1 | Cn1c(-c2cn(C3CC3(F)F)nc2C(F)(F)F)cnc1C(=O)Nc1ccc(C(=O)N[C@H]2[C@@H]3CN(C(=O)N[C@H]4CNC[C@@H]4O)C[C@@H]32)c(Cl)c1 (mixture of isomers) [Example 381, exo-6-(2-chloro-4-(5-(1-(2,2-difluorocyclopropyl)-3-(trifluoromethyl)-1H-pyrazol-4-yl)-1-methyl-1H-imidazole-2-carboxamido)benzamido)-N-((3S,4S)-4-hydroxypyrrolidin-3-yl)-3-azabicyclo[3.1.0]hexane-3-carboxamide formate] | 0.123
2 | Cn1c(-c2c[nH]nc2C(F)(F)F)cnc1C(=O)Nc1ccc(C(=O)N2CCN(C(=O)C3CCNCC3)CC2)c(Cl)c1 [Example 1, N-(3-chloro-4-(4-(piperidine-4-carbonyl)piperazine-1-carbonyl)phenyl)-1-methyl-5-(3-(trifluoromethyl)-1H-pyrazol-4-yl)-1H-imidazole-2-carboxamide hydrochloride] | 0.525
3 | C#CCn1cc(-c2cnc(C(=O)Nc3ccc(C(=O)N4CCN(C(=O)C5(O)CCNCC5)CC4)c(Cl)c3)n2C)c(C(F)(F)F)n1 [Example 39, N-[3-chloro-4-[4-(4-hydroxypiperidine-4-carbonyl)piperazine-1-carbonyl]phenyl]-1-methyl-5-[1-prop-2-ynyl-3-(trifluoromethyl)pyrazol-4-yl]imidazole-2-carboxamide hydrochloride] | 0.257
4 | Cn1c(-c2cn(C3CCCC3)nc2C(F)(F)F)cnc1C(=O)Nc1ccc(C(=O)N2CCN(C(=O)C3CCNCC3)CC2)c(Cl)c1 [Example 274, N-(3-chloro-4-(4-(piperidine-4-carbonyl)piperazine-1-carbonyl)phenyl)-5-(1-cyclopentyl-3-(trifluoromethyl)-1H-pyrazol-4-yl)-1-methyl-1H-imidazole-2-carboxamide hydrochloride] | 0.338
5 | C=C(C)Cn1cc(-c2cnc(C(=O)Nc3ccc(C(=O)NCCCCCN)c(Cl)c3)n2C)c(C(F)(F)F)n1 [Example 205, N-(4-((5-aminopentyl)carbamoyl)-3-chlorophenyl)-1-methyl-5-(1-(2-methylallyl)-3-(trifluoromethyl)-1H-pyrazol-4-yl)-1H-imidazole-2-carboxamide hydrochloride] | 0.224
6 | Cn1cc(-c2cnc(C(=O)Nc3ccc(C(=O)N4CCN(C(=O)C5(O)CCNCC5)CC4)c(Cl)c3)n2C)c(C(F)(F)F)n1 [Example 56, N-[3-Chloro-4-[4-(4-hydroxypiperidine-4-carbonyl)piperazine-1-carbonyl]phenyl]-1-methyl-5-[1-methyl-3-(trifluoromethyl)pyrazol-4-yl]imidazole-2-carboxamide 2,2,2-trifluoroacetate] | 1.51
7 | CC(C)n1cc(-c2cnc(C(=O)Nc3ccc(C(=O)N4CCN(C(=O)C5CCNCC5)CC4)c(Cl)c3)n2C)c(C(F)(F)F)n1 [Example 102, N-[3-chloro-4-[4-(piperidine-4-carbonyl)piperazine-1-carbonyl]phenyl]-1-methyl-5-[1-propan-2-yl-3-(trifluoromethyl)pyrazol-4-yl]imidazole-2-carboxamide;hydrochloride] | 0.448
8 | Cn1c(-c2cn(C3CC3)nc2C(F)(F)F)cnc1C(=O)Nc1ccc(C(=O)N2CCN(C(=O)[C@@H](N)CCCN)CC2)c(Cl)c1 [Example 285, (S)-N-(3-chloro-4-(4-(2,5-diaminopentanoyl)piperazine-1-carbonyl)phenyl)-5-(1-cyclopropyl-3-(trifluoromethyl)-1H-pyrazol-4-yl)-1-methyl-1H-imidazole-2-carboxamide dihydrochloride] | 0.351
9 | Cc1cc(NC(=O)c2ncc(-c3cn(CC#N)nc3C(F)(F)F)n2C)cc(F)c1C(=O)N1CCN(C(=O)[C@H]2CCNC2)CC1 [Example 122, 5-[1-(cyanomethyl)-3-(trifluoromethyl)pyrazol-4-yl]-N-[3-fluoro-5-methyl-4-[4-[(3S)-pyrrolidine-3-carbonyl]piperazine-1-carbonyl]phenyl]-1-methylimidazole-2-carboxamide] | 0.978
10 | C#CCn1cc(-c2cnc(C(=O)Nc3ccc(C(=O)N4CCN(C(=O)N[C@H]5CCNC5)CC4)c(Cl)c3)n2C)c(C(F)(F)F)n1 [Example 53, (S)-4-(2-chloro-4-(1-methyl-5-[1-(prop-2-yn-1-yl)-3-(trifluoromethyl)-1H-pyrazol-4-yl)-1H-imidazole-2-carboxamido)benzoyl)-N-(pyrrolidin-3-yl)piperazine-1-carboxamide hydrochloride] | 0.161
11 | Cn1c(-c2cn(C3CC3(F)F)nc2C(F)(F)F)cnc1C(=O)Nc1ccc(C(=O)NCC2CC3CNCC3C2)c(Cl)c1 (stereo not shown) [Example 196, N-(3-chloro-4-(((octahydrocyclopenta[c]pyrrol-5-yl)methyl)carbamoyl)phenyl)-5-(1-(2,2-difluorocyclopropyl)-3-(trifluoromethyl)-1H-pyrazol-4-yl)-1-methyl-1H-imidazole-2-carboxamide formate] | 0.202
12 | Cc1cc(NC(=O)c2ncc(-c3cn(CC#N)nc3C(F)(F)F)n2C)cc(F)c1C(=O)N1CCN(C(=O)[C@H](C)N)CC1 [Example 121, N-[4-[4-[(2S)-2-aminopropanoyl]piperazine-1-carbonyl]-3-fluoro-5-methylphenyl]-5-[1-(cyanomethyl)-3-(trifluoromethyl)pyrazol-4-yl]-1-methylimidazole-2-carboxamide] | 0.97
13 | Cn1c(-c2cn(C3CC3(F)F)nc2C(F)(F)F)cnc1C(=O)Nc1ccc(C(=O)N[C@H]2[C@@H]3CN(C(=O)C4CCNCC4)C[C@@H]32)c(Cl)c1 (stereo partly drawn) [Example 172, N-(3-chloro-4-(((1R,5S,6s)-3-(piperidine-4-carbonyl)-3-azabicyclo[3.1.0]hexan-6-yl)carbamoyl)phenyl)-5-(1-(2,2-difluorocyclopropyl)-3-(trifluoromethyl)-1H-pyrazol-4-yl)-1-methyl-1H-imidazole-2-carboxamide formate] | 0.146
14 | Cn1c(-c2cn(C3CC3(F)F)nc2C(F)(F)F)cnc1C(=O)Nc1ccc(C(=O)NC2(C)CCNCC2)c(Cl)c1 (stereo not shown) [Example 344, N-(3-chloro-4-((4-methylpiperidin-4-yl)carbamoyl)phenyl)-5-(1-(2,2-difluorocyclopropyl)-3-(trifluoromethyl)-1H-pyrazol-4-yl)-1-methyl-1H-imidazole-2-carboxamide formate] | 0.443
15 | CO[C@H]1CNC[C@@H]1NC(=O)c1ccc(NC(=O)c2ncc(-c3cn(C4CC4(F)F)nc3C(F)(F)F)n2C)cc1Cl (mixture of isomers) [Example 280, N-(3-chloro-4-((trans-4-methoxypyrrolidin-3-yl)carbamoyl)phenyl)-5-(1-(2,2-difluorocyclopropyl)-3-(trifluoromethyl)-1H-pyrazol-4-yl)-1-methyl-1H-imidazole-2-carboxamide formate] | 0.345
16 | Cn1c(-c2cn(CC(F)(F)F)nc2C(F)(F)F)cnc1C(=O)Nc1ccc(C(=O)N2CCN(C(=O)C3CCNCC3)CC2)c(Cl)c1 [Example 2, N-(3-Chloro-4-(4-(piperidine-4-carbonyl)piperazine-1-carbonyl)phenyl)-1-methyl-5-(1-(2,2,2-trifluoroethyl)-3-(trifluoromethyl)-1H-pyrazol-4-yl)-1H-imidazole-2-carboxamide Hydrochloride] | 0.399

Source: patent US11390604B2 (Hoffmann-La Roche Inc., priority 2019, dated 2022)
